The values below come from US9517985B2, “Method for producing butanol using extractive fermentation” (Butamax Advanced Biofuels LLC, priority 2013, dated 2016).

As usually defined, the viability is a read-out of living cells in per cent, often relative to untreated cells.

Read-outs that look alike come from different tables or passages of the source.

Data set [1] deals with isobutanologen. Nature of the data set: Secondary screen for solvent biocompatibility (shake flask; Cellometer viability, glucose, isobutanol). As to conditions: 30° C.; for % Viability: relative to oleyl alcohol.
Experiment in data set [2]: as above
Particulars: yeast (isobutanologen).

Data set [3] concerns isobutanologen. Nature of the data set: Tertiary screen for solvent biocompatibility (growth of isobutanologen in rich media with solvent, time course). The class given is cell-based. Particulars: for isobutanol production: FIG. 11, versus oleyl alcohol control; for glucose consumption: FIG. 12, versus oleyl alcohol control; for ethanol consumption: FIG. 13, versus oleyl alcohol control.

Data set [4] relates to isobutanologen.
The subject of data set [5] is isobutanologen. Briefly: Automated primary screen for solvent biocompatibility (96 well plate, propidium iodide dead-cell fluorescence). The data set is classed as cell-based.
Data set [6] concerns isobutanologen. Briefly: Three step screening process, overall biocompatibility call.
Data set [7] deals with modified Escherichia coli strain. Particulars: oleyl alcohol as the organic extractant, Example 6 of US 2009/0305370; cited from earlier work.
The mark [8] stands for this setting: propidium iodide signal, 1 h exposure, 1:1 aq:org, room temperature.

`CCCCCCCCCC` [n-decane]: in the data set on isobutanologen [1] (4 Hours), the “Glucose” value is given as 5.8 g/L and the “iBuOH” value stood at 1.6 g/L. Further, in the data set on isobutanologen [1] (25 Hours), the “Glucose” value is reported as 0.0 g/L and the “iBuOH” value is given as 2.3 g/L. Moreover, in data set [2], the viability at 4 h amounted to 107% and the viability at 25 h came to 54%.
`CCCCCCCCCCC` [n-undecane]: in the data set on isobutanologen [3], the isobutanol production result is “comparable to oleyl alcohol”, the glucose consumption result was “comparable to oleyl alcohol” and the ethanol consumption entry is recorded as “comparable to oleyl alcohol”. In addition, in the data set on isobutanologen [1] (30 Hours), the “Glucose” value is on record as 0.0 g/L and the “iBuOH” value worked out at 1.9 g/L. Further, in data set [2], the viability at 5 h amounted to 98% and the viability at 30 h was determined as 100%.
With trimethylnonanol, in the data set on isobutanologen [3], the isobutanol production result was “comparable to oleyl alcohol”, the glucose consumption entry was “comparable to oleyl alcohol” and the ethanol consumption entry is given as “comparable to oleyl alcohol”. Moreover, the “% Viability” value in the data set on isobutanologen [1] (5 Hours) is 99%. In the data set with isobutanologen [1] (30 Hours), the “Glucose” value is recorded as 0.0 g/L, the “iBuOH” value stood at 2.1 g/L and the “% Viability” value is reported as 98%. For the same compound, the biocompatibility entry with isobutanologen [4] is listed as “biocompatible”. For the same compound, the “% Dead” value in the data set with isobutanologen [5] (setting [8]) is 3%.
Turning to `CC(C)CC(C)(C)C` [isooctane], in the data set on isobutanologen [1] (4 Hours), the “Glucose” value is reported as 10.8 g/L and the “iBuOH” value stood at 0.5 g/L. Further, in the data set with isobutanologen [1] (25 Hours), the “Glucose” value came out at 8.5 g/L and the “iBuOH” value is 0.8 g/L. In data set [2], the viability at 4 h was 90% and the viability at 25 h turned out to be 31%.
In the case of `Cc1cccc2cccnc12` [8-methylquinoline], in the data set with isobutanologen [1] (30 Hours), the “Glucose” value came to 17.5 g/L and the “iBuOH” value worked out at 0.0 g/L. Moreover, the viability at 30 h in data set [2] was found to be 47%.
As for `CC(C)CC(=O)CC(C)C` [2.6-dimethylheptan-4-one], the “Glucose” value in the data set with isobutanologen [1] (4 Hours) stood at 10.9 g/L; in the data set on isobutanologen [1] (25 Hours), 7.9 g/L. The “iBuOH” value in the data set on isobutanologen [1] (4 Hours) was found to be 0.6 g/L; in the data set on isobutanologen [1] (25 Hours), 0.9 g/L. Besides, the “% Viability” value with isobutanologen [1] (4 Hours, 1:1) turned out to be 78%; with isobutanologen [1] (25 Hours, 1:1), 26%. For the same compound, in the data set on isobutanologen [5] (setting [8]), the “% Dead” value was determined as 5%.
Turning to `CCCCCCCCCCCC(=O)OC` [methyl laurate], in the data set with isobutanologen [3], the isobutanol production result is “comparable to oleyl alcohol”, the glucose consumption result was “comparable to oleyl alcohol” and the ethanol consumption result is given as “comparable to oleyl alcohol”. Besides, in the data set on isobutanologen [1] (4 Hours), the “Glucose” value is 3.9 g/L and the “iBuOH” value is given as 2.1 g/L. Besides, in the data set with isobutanologen [1] (25 Hours), the “Glucose” value turned out to be 0.0 g/L and the “iBuOH” value is recorded as 1.6 g/L. Further, in data set [2], the viability at 4 h came out at 110% and the viability at 25 h was 94%.
For `CCCCOC(C)=O` [n-butyl acetate], in the data set on isobutanologen [1] (30 Hours), the “Glucose” value is on record as 16.6 g/L and the “iBuOH” value came to 0.0 g/L. In addition, in data set [2], the viability at 5 h stood at 46% and the viability at 30 h is 35%.
Regarding `CCCCOC(=O)CCC` [n-butyl n-butyrate], in the data set on isobutanologen [1] (4 Hours), the “Glucose” value was found to be 12.4 g/L and the “iBuOH” value is 0.0 g/L. Besides, in the data set on isobutanologen [1] (25 Hours), the “Glucose” value was determined as 11.7 g/L and the “iBuOH” value was 0.0 g/L. In data set [2], the viability at 4 h stood at 48% and the viability at 25 h turned out to be 7%.
For the compound `CCCCC(CC)CO` (stereo not drawn) [2-ethyl-1-hexanol, reference compound], in the data set on isobutanologen [1] (4 Hours), the “Glucose” value came out at 13.1 g/L and the “iBuOH” value was 0.0 g/L. In the data set on isobutanologen [1] (25 Hours), the “Glucose” value is given as 13.7 g/L and the “iBuOH” value is 0.0 g/L. In the data set on isobutanologen [1] (30 Hours), the “Glucose” value stood at 16.8 g/L and the “iBuOH” value came out at 0.0 g/L. For the same compound, in data set [2], the viability at 4 h amounted to 14%, the viability at 5 h was 58%, the viability at 25 h came out at 6% and the viability at 30 h turned out to be 47%.
As to `CCCCCCCCCCCCO` [dodecanol], in the data set on isobutanologen [6], the biocompatibility result is reported as “toxic”.
As to `CCOC(C)(C)C` [ETBE], the “Glucose” value came to 12.5 g/L in the data set with isobutanologen [1] (4 Hours) and 12.8 g/L in the data set with isobutanologen [1] (25 Hours). In addition, the “iBuOH” value in the data set on isobutanologen [1] (4 Hours) and in the data set on isobutanologen [1] (25 Hours) was 0.0 g/L in each case. In addition, the “% Viability” value in the data set with isobutanologen [1] (4 Hours, 1:1) came to 16%; with isobutanologen [1] (25 Hours, 1:1) it was 4%. Moreover, the “% Dead” value in the data set on isobutanologen [5] (setting [8]) is 6%.
As to `C1CCC2CCCCC2C1` (stereo not drawn) [decalin], in the data set with isobutanologen [1] (4 Hours), the “Glucose” value was found to be 11.2 g/L and the “iBuOH” value is listed as 0.4 g/L. Besides, in the data set on isobutanologen [1] (25 Hours), the “Glucose” value is given as 10.3 g/L and the “iBuOH” value is given as 0.5 g/L. In data set [2], the viability at 4 h was found to be 76% and the viability at 25 h was found to be 36%.
Turning to `CCCCCCCC/C=C\CCCCCCCCO` [oleyl alcohol, reference compound], in the data set with isobutanologen [1] (4 Hours), the “Glucose” value was found to be 5.7 g/L and the “iBuOH” value was found to be 1.8 g/L. In the data set with isobutanologen [1] (25 Hours), the “Glucose” value is 0.0 g/L and the “iBuOH” value came out at 2.6 g/L. Moreover, in the data set on isobutanologen [1] (30 Hours), the “Glucose” value was 0.0 g/L and the “iBuOH” value is recorded as 2.2 g/L. In data set [2], the viability at 4 h worked out at 100%, the viability at 5 h was 100%, the viability at 25 h was determined as 100% and the viability at 30 h came to 100%. Moreover, the “effective titer for isobutanol” value in data set [7] was 37 g/L.
With `CCCCOCCOCCCC` [1,2-dibutoxyethane], in the data set with isobutanologen [1] (4 Hours), the “Glucose” value stood at 11.9 g/L and the “iBuOH” value is reported as 0.4 g/L. In the data set on isobutanologen [1] (25 Hours), the “Glucose” value is on record as 10.7 g/L and the “iBuOH” value stood at 0.4 g/L. In addition, in data set [2], the viability at 4 h amounted to 63% and the viability at 25 h is 8%.
In the case of `Cc1cc(C)cc(C)c1` [mesitylene], in the data set with isobutanologen [1] (4 Hours), the “Glucose” value was 12.5 g/L and the “iBuOH” value turned out to be 0.0 g/L. Further, in the data set with isobutanologen [1] (25 Hours), the “Glucose” value was determined as 12.1 g/L and the “iBuOH” value was found to be 0.1 g/L. In addition, in data set [2], the viability at 4 h was found to be 64% and the viability at 25 h was found to be 17%.
Regarding `CCCCCCCCOCCCCCCCC` [di-n-octyl ether], in the data set on isobutanologen [3], the isobutanol production result is given as “comparable to oleyl alcohol”, the glucose consumption entry is on record as “comparable to oleyl alcohol” and the ethanol consumption result was “comparable to oleyl alcohol”. In addition, in the data set on isobutanologen [1] (30 Hours), the “Glucose” value turned out to be 0.0 g/L and the “iBuOH” value worked out at 1.9 g/L. Moreover, in data set [2], the viability at 5 h is 99% and the viability at 30 h stood at 99%.
`COC(C)(C)C` [MTBE]: the “Glucose” value in the data set on isobutanologen [1] (4 Hours) was determined as 12.7 g/L; in the data set with isobutanologen [1] (25 Hours), 12.9 g/L. Also, the figures for the “iBuOH” value in the data set with isobutanologen [1] (4 Hours) and with isobutanologen [1] (25 Hours) were 0.0 g/L and 0.2 g/L, respectively. In addition, the “% Dead” value with isobutanologen [5] came to 19%.
`CCCCCCOCCCCCC` [di-n-hexyl ether]: in the data set on isobutanologen [1] (4 Hours), the “Glucose” value was determined as 8.1 g/L and the “iBuOH” value was determined as 1.1 g/L. Besides, in the data set with isobutanologen [1] (25 Hours), the “Glucose” value turned out to be 0.9 g/L and the “iBuOH” value was found to be 1.9 g/L. In addition, in data set [2], the viability at 4 h worked out at 106% and the viability at 25 h worked out at 62%.
With `CCCCC(CC)COC(C)=O` (stereo not drawn) [2-ethyl hexyl acetate], the “Glucose” value is given as 10.5 g/L in the data set with isobutanologen [1] (4 Hours) and 7.1 g/L in the data set with isobutanologen [1] (25 Hours). For the same compound, the “iBuOH” value with isobutanologen [1] (4 Hours) came to 0.6 g/L; with isobutanologen [1] (25 Hours), 1.2 g/L. The “% Viability” value with isobutanologen [1] (4 Hours, 1:1) is 96%; in the data set on isobutanologen [1] (25 Hours, 1:1), 42%. In the data set on isobutanologen [5] (setting [8]), the “% Dead” value worked out at 3%.
In the case of `CCCCCCCCCCCC=O` [dodecanal], in the data set with isobutanologen [1] (30 Hours), the “Glucose” value is listed as 0.0 g/L and the “iBuOH” value came to 0.0 g/L. In data set [2], the viability at 5 h is 78% and the viability at 30 h was found to be 62%. For the same compound, in the data set with isobutanologen [4], the biocompatibility result is given as “toxic”.
Turning to `CC(C)CC(O)CC(C)C` [2,6-dimethylheptan-4-ol], in the data set with isobutanologen [1] (4 Hours), the “Glucose” value worked out at 12.1 g/L and the “iBuOH” value worked out at 0.0 g/L. In the data set with isobutanologen [1] (25 Hours), the “Glucose” value was determined as 11.8 g/L and the “iBuOH” value is on record as 0.0 g/L. In data set [2], the viability at 4 h was 42% and the viability at 25 h came to 8%.
On to `CCCCCCCCCCCC` [dodecane], for which, in the data set on isobutanologen [3], the isobutanol production result was “comparable to oleyl alcohol”, the glucose consumption result is given as “comparable to oleyl alcohol” and the ethanol consumption entry was “comparable to oleyl alcohol”. In the data set on isobutanologen [1] (30 Hours), the “Glucose” value worked out at 0.0 g/L and the “iBuOH” value stood at 1.9 g/L. In addition, in data set [2], the viability at 5 h turned out to be 99% and the viability at 30 h is 99%. Besides, in the data set on isobutanologen [6], the biocompatibility result is “biocompatible”.
In the case of `CCCCCCOC(C)=O` [n-hexyl acetate], in the data set with isobutanologen [1] (4 Hours), the “Glucose” value was 12.8 g/L and the “iBuOH” value was found to be 0.0 g/L. In addition, in the data set with isobutanologen [1] (25 Hours), the “Glucose” value came out at 13.0 g/L and the “iBuOH” value is reported as 0.0 g/L. Besides, in data set [2], the viability at 4 h came out at 18% and the viability at 25 h amounted to 3%.
In the case of primary amyl acetate mixed isomers, in the data set on isobutanologen [5] (setting [8]), the “% Dead” value is on record as 104%.
On the same count and under the same terms, the same measure for `CCCCC(CC)COCCO` (stereo not drawn) [2-ethylhexylglycol ether]: 79%.
